For test [1], the system named is aromatase. The settings on record: reported in Biochemical Pharmacology, 34, 1087 (1985); cited from earlier work.
For test [2], the system named is aromatase. Nature of the test: In vivo-inhibition of the aromatase activity (plasma estradiol in PMSG-injected immature female Wistar rats). Also noted: species or system rat (immature female Wistar rats). Conditions: 1 mg/kg oral gavage, two hours following administration, PMSG-injected immature female Wistar rats. As to the method: Immature female Wistar rats weighing 120 g were injected subcutaneously with 200 I.U. of pregnant mare's serum gonadotropin (PMSG). […] Control animals received 20% polyethyleneglycol only. Two hours following drug or placebo administration the rats were killed by decapitation and trunk blood was collected on heparine. Plasma estradiol concentrations were measured by standard radio-immunological procedures.

The target in test [3] is T1, aromatase (Homo sapiens, UniProt P11511).
T1 sequence (P11511 1-503): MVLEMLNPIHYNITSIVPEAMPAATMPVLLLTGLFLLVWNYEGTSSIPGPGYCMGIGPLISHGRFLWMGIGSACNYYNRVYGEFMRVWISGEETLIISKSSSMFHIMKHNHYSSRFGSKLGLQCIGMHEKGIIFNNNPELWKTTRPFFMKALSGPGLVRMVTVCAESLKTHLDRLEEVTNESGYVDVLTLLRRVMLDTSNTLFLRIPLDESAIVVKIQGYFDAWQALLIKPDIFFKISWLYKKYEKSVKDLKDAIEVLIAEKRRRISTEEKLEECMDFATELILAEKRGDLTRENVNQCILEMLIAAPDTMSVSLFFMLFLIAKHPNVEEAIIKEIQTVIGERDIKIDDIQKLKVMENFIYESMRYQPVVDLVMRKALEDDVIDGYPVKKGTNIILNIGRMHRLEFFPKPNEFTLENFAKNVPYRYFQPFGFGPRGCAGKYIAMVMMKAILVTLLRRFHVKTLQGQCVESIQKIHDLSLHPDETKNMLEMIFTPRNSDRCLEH
Kind of test: biochemical. Conditions: human placental microsomes, 30 min at 37° C., pH 7.4, 1,2[3H]androstenedione; read-out: IC50-values (concentration of the compound required to obtain 50% inhibition of the estrogen synthesis). As for the experimental part:
Human placental microsomes were diluted in potassium phosphate buffer (0.1M, pH 7.4) to give about 50% conversion of androgens to estrogens (protein content: about 0.5 mg). Four ml human placental microsomes were incubated in a final volume of 5 ml with 0.2 μCi1,2[3H]-androstenedione, 2 μg androstendione and 5 μl of test compound and/or dimethyl sulfoxide (DMSO). […] The reaction was initiated by the addition of androstenedione and proceeded for 30 min at 37° C. During the incubation period, the mixtures were gassed with air. In this assay, aromatization of androstenedione results in the production of [3H]-H2 O which is isolated by extracting the samples with chloroform to remove the free steroid.

`CC(=O)N1CCN(c2ccc(OCC3COC(Cn4ccnc4)(c4ccc(Cl)cc4Cl)O3)cc2)CC1` (stereo not drawn) [ketoconazole]: the “inhibition of the action of the enzyme aromatase (in words)” value (“inhibition” for short) in the test with aromatase [1] was “inhibit the action of the enzyme aromatase”.
For `Clc1ccccc1C(c1ccccc1)(c1ccccc1)n1ccnc1` [clotrimazole], in the test on aromatase [1], the “inhibition” value is “inhibit the action of the enzyme aromatase”.
Regarding `CC(C)n1nnc2ccc(C(c3ccc(Cl)cc3)n3ccnc3)cc21` (stereo not drawn) [Compound 116], the “% recovery estradiol (plasma estradiol relative to the controls)” value with aromatase [2] worked out at 20%. For the same compound, the IC50 at aromatase [3] was found to be 24.9 nM.
For `CC(C)On1nnc2ccc(C(c3ccccc3)n3ccnc3)cc21` (stereo not drawn) [Compound 2], the “% recovery estradiol (plasma estradiol relative to the controls)” value in the test on aromatase [2] came out at 20%. Besides, the IC50 at aromatase [3] is 16 nM.
For `CCCCn1nnc2ccc(C(c3ccc(F)cc3)n3ccnc3)cc21` (stereo not drawn) [Compound 17] the same measures were 7% and 18.2 nM.
Regarding `c1ccc2c(c1)CCC2n1nnc2ccc(Cn3ccnc3)cc21` (stereo not drawn) [Compound 115], in the test on aromatase [2], the “% recovery estradiol (plasma estradiol relative to the controls)” value is 22%. Also, the IC50 on aromatase [3] was found to be 14.4 nM.
Take `c1ccc(C(c2ccc3nnn(C4CCCCC4)c3c2)n2ccnc2)cc1` (stereo not drawn) [Compound 104]: the “% recovery estradiol (plasma estradiol relative to the controls)” value in the test with aromatase [2] is recorded as 9%. Besides, the IC50 at aromatase [3] stood at 20.6 nM.
Taken in the same sequence, the figures for `c1cn(Cc2ccc3nnn(CC4CCCCC4)c3c2)cn1` [Compound 97] were 10% and 13.1 nM.
With `c1ccc(CCCOn2nnc3ccc(Cn4ccnc4)cc32)cc1` [Compound 207], the “% recovery estradiol (plasma estradiol relative to the controls)” value in the test on aromatase [2] is listed as 26%. Also, on aromatase [3], the IC50 came to 7.3 nM.
As for `Cn1nnc2ccc(C(c3ccccc3Cl)n3ccnc3)cc21` (stereo not drawn) [Compound 56], in the test on aromatase [2], the “% recovery estradiol (plasma estradiol relative to the controls)” value was 8%. Moreover, at aromatase [3], the IC50 was found to be 21.5 nM.
Taken in the same sequence, the figures for `Clc1ccc(C(c2ccc3nnn(C4CCCCC4)c3c2)n2ccnc2)cc1` (stereo not drawn) [Compound 117] were 9% and 12.5 nM.
Consider `CCCCCCOn1nnc2ccc(Cn3ccnc3)cc21` [Compound 202], for which the “% recovery estradiol (plasma estradiol relative to the controls)” value with aromatase [2] is reported as 21%. For the same compound, the IC50 at aromatase [3] is 7.1 nM.
Turning to `CCCCn1nnc2ccc(C(c3ccc(Cl)cc3)n3ccnc3)cc21` (stereo not drawn) [Compound 15], the “% recovery estradiol (plasma estradiol relative to the controls)” value with aromatase [2] came to 2%. At aromatase [3], the IC50 is 22.6 nM.
For `Cn1nnc2ccc(C(c3ccc(F)cc3)n3ccnc3)cc21` (stereo not drawn) [Compound 29] the same measures were 7% and 15.9 nM.
For `Clc1ccc(COC(Cn2ccnc2)c2ccc(Cl)cc2Cl)c(Cl)c1` (stereo not drawn) [miconazole], the “inhibition” value in the test on aromatase [1] is reported as “inhibit the action of the enzyme aromatase”.
As for `CCCCOn1nnc2ccc(Cn3ccnc3)cc21.Cl` [Compound 226, 1-butoxy-6-(1H-imidazol-1-ylmethyl)-1H-benzotriazole monohydrochloride], in the test with aromatase [2], the “% recovery estradiol (plasma estradiol relative to the controls)” value was found to be 19%. Moreover, on aromatase [3], the IC50 stood at 6.7 nM.
Regarding `c1cn(Cc2ccc3nnn(C4CCCCCC4)c3c2)cn1` [Compound 100], in the test on aromatase [2], the “% recovery estradiol (plasma estradiol relative to the controls)” value is 3%. For the same compound, the IC50 on aromatase [3] is 14.3 nM.
For `CC(C)On1nnc2ccc(Cn3ccnc3)cc21` [Compound 195, 6-(1H-imidazol-1-ylmethyl)-1-(1-methylethoxy)-1H-benzotriazole] the same measures were 19% and 12 nM.
Taken in the same sequence, the figures for `Cn1nnc2ccc(C(c3ccc(Cl)cc3)n3ccnc3)cc21` (stereo not drawn) [Compound 48] were 6% and 16.6 nM.
Regarding `CCCCn1nnc2ccc(C(c3ccccc3)n3ccnc3)cc21.O=C(O)C(=O)O` (stereo not drawn) [Compound 75, 1-butyl-6-[(1H-imidazol-1-yl)phenylmethyl]-1H-benzotriazole ethanedioate(1:1)], the “% recovery estradiol (plasma estradiol relative to the controls)” value in the test on aromatase [2] amounted to 27%. On aromatase [3], the IC50 turned out to be 24.2 nM.
Take `c1cn(Cc2ccc3nnn(CC4CC4)c3c2)cn1` [Compound 108]: the “% recovery estradiol (plasma estradiol relative to the controls)” value in the test on aromatase [2] turned out to be 3%. The IC50 on aromatase [3] turned out to be 15.2 nM.

Values taken from US4943574A, “(1H-azol-1-ylmethyl) substituted benzotriazole derivatives and pharmaceutical compositions containing them” (Janssen Pharmaceutica N.V., priority 1989, dated 1990).
